From patent publication US5968955A, “Disubstituted piperidine derivatives as neuroprotective agents” (Pharmacia & Upjohn S.p.A., priority 1995, dated 1999)

Tests used:
[1] = system: mixed cortical neuronal cultures; test: neuroprotection against NMDA induced toxicity in mixed cortical neuronal cultures (Trypan Blue Dye Exclusion); assay type: cell-based, rat (foetal rats); conditions: prevention of toxicity by NMDA 500 μM, 20 min exposure, 3 min preincubation, viability after 24 h
Description: The efficacy of the compounds of the invention as neuroprotective agents, based upon their ability to prevent EEA induced toxicity in vitro, was evaluated in mixed cortical neuronal cultures, following the method reported below.
Mixed cortical neuronal cultures from foetal rats at 16 days of gestation were prepared as described by Choi (J. Neur. Sci. 7: 357-368, 1987).
Briefly, dissociated cells were plated on poly-L-lysine coated multiwell plates at density of 1*10^5 cells/cm^2 in MEM with Earle's salts supplemented with 21 mM D-glucose, 2 mM L-glutamine, 50 μg/ml Streptomicin, 50 IU Penicillin, 10% Foetal Calf Serum and 10% Horse Serum. Cultures were kept at 37° C., 5% CO2 and survived about 5 weeks. After 7 days in vitro, astrocites proliferation was inhibited by adding 10 μM Cytosine Arabinoside for 48 hours; the medium was subsequently substituted twice a week with a fresh medium without foetal calf serum (Hatley, J. Pharm. and Exp. Ther. 250 (II);752-758, 1989).
Only nature cortical cultures, from 14 DIV on, were used for the study.
Experiments were performed at 25° C. as follows: cells were washed once with a Locke's buffer, (128 mM NaCl, […] KCl, 1.2 mM Na2 HPO4, 2.7 mM CaCl2, 20 mM Hepes and 10 mM D-glucose) pH=7.4, then preincubated with the test compounds for 3 min. followed by a 20 min. exposure to N-methyl-D-aspartate (NMDA) (500 μM).
The incubation was stopped by removing Locke's buffer and substituting the conditioned medium. After 24 hours at 37° C., 5% CO2, Trypan Blue Dye Exclusion Test (0.04%) was used for evaluating the cells viability.

[2] = system: focal ischemia in mice (Middle Cerebral Artery occlusion); test: antiischemic activity in vivo in the model of focal ischemia in mice (MCA electrocoagulation), infarct volume; design: species or system mice (male Swiss CD); conditions: male Swiss mice; for Infarct volume: Means ± SEM after MCA occlusion, day 4, 7 mg/Kg i.p. 5 min and 6 h after ischemia, then twice a day on days 2, 3 and 4, saline 20.9 ± 1.7, P < 0.01 from controls
Description: The antiischemic activity of the compounds of the present invention was evaluated in vivo in the model of focal ischemia in mice.
Focal ischemia was produced in mice by electrocoagulation of the Middle Cerebral Artery (MCA) according the procedure reported by Welsh et al. (Welsh F A, Sakamoto T, McKee A, Sims R E, J Neurochem: 49: 846-851, 1987). Briefly, male Swiss CD mice (C. River, Milan, Italy) were anesthetised with chloral hydrate (500 mg/Kg i.p.); an incision was made on the temporo-parietal region of the head and a small burr hole was drilled into the lateral outer surface of the skull just over the MCA. The stem of the MCA was occluded by microbipolar coagulation. Animals were maintained under an heating lamp during surgery and for two hours afterwards.
Four days after the occlusion, mice were decapitated and the brains stored a -20° C. until sectioned for histological examination.
Coronal sections (50 μm thick) of the frozen brains were taken every 1.00 mm in order to evaluate the infarct volume.
The slices were stained with cresyl violet and the cortical infarct area of each slice was determined by an image analyzing system (Ibas 20, Kontron, Milan, Italy). Infarct volume was calculated from the infarct area on each slice and the distance between succeeding slices.
The treatment schedule consisted in the administration of the tested compound 5 min and 6 h after ischemia during the first day after surgery and then twice a day on days 2, 3 and 4 according to published data (Gotti B. et al.; Brain Research, 522,290-307, 1990). The tested compounds were given i.p. at the dose of 7 mg/Kg.
Dosing was performed till sacrifice. The time schedule, the doses and the route of administration of the tested compounds were selected on the basis of preliminary experiments.

SMILES	EC50 ([1]; Rattus norvegicus) [µM]	further results
O=C(c1ccc(F)cc1)C1CCN(CC(O)c2cc(Br)no2)CC1 (centres unmarked) [Compound 25, 2-[4-(4-fluoro-benzoyl)piperidin-1-yl]-1-(3-bromo-isoxazol-5-yl)-ethan-1-ol]	22	
ON=C(CN1CCC(Cc2ccccc2)CC1)c1cc(Br)no1 [Compound 17, (±)-2-(4-Benzyl-piperidin-1-yl)-1-(3-bromo-isoxazol-5-yl)-ethan-1-one-oxyme]		EC50 [1]: 2.13 µM
OC(CN1CCC(Cc2ccccc2)CC1)c1cc(Br)no1 (racemic) [Compound 1, (±)-2-(4-Benzyl-piperidin-1-yl)-1-(3-bromo-isoxazol-5-yl) -ethan-1-ol]	2.02	
COc1cc(C(O)CN2CCC(C(=O)c3ccc(F)cc3)CC2)on1 (racemic) [Compound 27, (±)2-[4-(p-Fluoro-benzoyl)-piperidin-1-yl]-1-(3-methoxy-isoxazol-5-yl)-ethan-1-ol]	0.64	
COc1cc(C(O)CN2CCC(Cc3ccccc3)CC2)on1 (racemic) [Compound 3, (±)-2-(4-Benzyl-piperidin-1-yl)-1-(3-methoxy-isoxazol-5-yl)-ethan-1-ol]	3.29	Effect on infarct volume compared with saline-treated mice (in words) ([2]; 7 mg/Kg i.p., day 4, versus saline): significantly reduce infarct volume; Infarct volume ([2]; 7 mg/kg): 13.6 ± 1.5 mm^3; Infarct volume ([2]; listed as Example 2, 7 mg/kg): 13.6±1.5 mm^3
